Data as given in ChEMBL document CHEMBL1201862, “PubChem BioAssay data set” (2004).
The source made the active and inactive calls.

Experiments:
[1] = molecular target: T1, Voltage-gated N-type calcium channel alpha-1B subunit/Amyloid beta A4 precursor protein-binding family A member 1 (Homo sapiens, UniProt Q00975+Q02410); assay: disruptors of Mint-PDZ/N-type channel peptide interaction – biochemical, HTRF, SAR follow-up (AID 2489); assay type: functional
[2] = molecular target: T1, Voltage-gated N-type calcium channel alpha-1B subunit/Amyloid beta A4 precursor protein-binding family A member 1; assay: disruptors of Mint-PDZ/N-type channel peptide interaction – biochemical, HTRF, set 2, SAR follow-up (AID 434980); assay type: functional
Protein Rev = Protein Rev (Human immunodeficiency virus type 1 group M subtype B (isolate HXB2)(HIV-1), UniProt P04618); assay: inhibitors of Rev binding to RRE RNA, dose response, biochemical, fluorescence polarization, HIV-1 (AID 434976); parameters: species or system Human immunodeficiency virus 1
Chain of Protein Rev (P04618 whole entry): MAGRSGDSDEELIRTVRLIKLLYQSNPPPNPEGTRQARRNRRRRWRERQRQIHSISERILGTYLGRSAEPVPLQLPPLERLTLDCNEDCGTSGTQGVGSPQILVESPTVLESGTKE

[3] = molecular target: Female germline-specific tumor suppressor gld-1 (Caenorhabditis elegans, UniProt Q17339); assay: inhibitors of GLD-1 binding to TGE RNA, dose response, biochemical, fluorescence polarization, C. elegans (AID 2802);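 note: fluorescence polarization of labeled TGE RNA bound by purified gld-1 protein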
[4] = inhibition of K1F phage lysis, E. coli UTI89, bacterial capsule biogenesis inhibitors, alamar blue (AID 488966); assay type: functional
[5] = HepG2 cell cytotoxicity, dose response, cytotoxicity control for non-replicating M. tuberculosis project (AID 489018); assay type: functional; settings: Mycobacterium tuberculosis
[6] = THP-1 cell cytotoxicity, dose response, cytotoxicity control for non-replicating M. tuberculosis project (AID 489025); assay type: functional
cells = assay type: functional
[7] = Luminescence Cell-Based Dose Response HTS to Identify Inhibitors of 5'UTR Stem-Loop Driven Prion Protein mRNA Translation in H4 Neuroglioblastoma Cells. [Related pubchem assays: 1827 (Project Summary), 1813 (Primary HTS)]; assay type: functional
[8] = inhibitors of SNCA 5'UTR-driven reporter translation, confirmation, H4 neuroglioma cells, luminescence (AID 1988); assay type: functional, cell-based
[9] = molecular target: T2, Ubiquitin-conjugating enzyme E2 N (Homo sapiens, UniProt P61088); assay type: functional;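 note: Dose-response confirmation in a TR-FRET assay detecting UBC13-driven polyubiquitin chain formation, inhibition measured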
T2 sequence (P61088 whole entry): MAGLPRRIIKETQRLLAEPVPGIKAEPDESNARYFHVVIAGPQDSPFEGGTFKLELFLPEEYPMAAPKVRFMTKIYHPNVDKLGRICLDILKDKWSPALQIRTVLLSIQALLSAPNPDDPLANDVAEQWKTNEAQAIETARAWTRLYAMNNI

[10] = inhibitors of firefly luciferase expression or activity, dose response, H4 neuroglioma cells, luminescence (AID 1990); assay type: functional, cell-based
[11] = molecular target: Cyclin-dependent kinase 5/CDK5 activator 1 (Homo sapiens, UniProt Q00535); assay: CDK5/p35 kinase inhibitors, dose response, biochemical, cherry-picked samples, set 2 (AID 504545)
Mu-type opioid receptor [12] = molecular target: T3, Mu-type opioid receptor (Homo sapiens, UniProt P35372); assay: MOR antagonists, SAR follow-up, image-based (AID 2420); assay type: functional;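 note: compounds added before stimulation of receptor with agonist DAMGO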
T3 sequence (P35372 whole entry): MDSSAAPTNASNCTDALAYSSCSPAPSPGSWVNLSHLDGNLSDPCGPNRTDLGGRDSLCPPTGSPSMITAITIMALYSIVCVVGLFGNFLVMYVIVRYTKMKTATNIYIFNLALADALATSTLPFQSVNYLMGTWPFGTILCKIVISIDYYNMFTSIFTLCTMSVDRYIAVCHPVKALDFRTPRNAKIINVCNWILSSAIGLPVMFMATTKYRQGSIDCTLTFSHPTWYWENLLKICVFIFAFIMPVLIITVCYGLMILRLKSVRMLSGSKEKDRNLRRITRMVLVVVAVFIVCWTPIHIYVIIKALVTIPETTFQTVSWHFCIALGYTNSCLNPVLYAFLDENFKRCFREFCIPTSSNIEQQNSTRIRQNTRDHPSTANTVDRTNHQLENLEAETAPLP

[13] = molecular target: T4, Kappa-type opioid receptor (Homo sapiens, UniProt P41145); assay: KOR agonist analogs, imaging readout, SAR follow-up, image-based (AID 2359); assay type: functional
T4 sequence (P41145 whole entry): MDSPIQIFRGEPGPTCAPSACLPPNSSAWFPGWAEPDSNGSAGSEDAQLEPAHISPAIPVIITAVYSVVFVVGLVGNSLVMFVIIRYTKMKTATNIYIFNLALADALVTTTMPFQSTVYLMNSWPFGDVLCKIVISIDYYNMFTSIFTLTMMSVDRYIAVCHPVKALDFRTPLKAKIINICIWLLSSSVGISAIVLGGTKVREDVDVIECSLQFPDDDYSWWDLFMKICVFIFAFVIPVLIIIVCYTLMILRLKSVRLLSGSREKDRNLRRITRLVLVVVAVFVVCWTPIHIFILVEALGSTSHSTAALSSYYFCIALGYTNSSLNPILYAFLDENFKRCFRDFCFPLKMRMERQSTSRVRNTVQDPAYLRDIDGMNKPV

[14] = molecular target: T5, Delta-type opioid receptor (Homo sapiens, UniProt P41143); assay: DOR antagonists, SAR follow-up, image-based (AID 2357); assay type: functional
T5 sequence (P41143 whole entry): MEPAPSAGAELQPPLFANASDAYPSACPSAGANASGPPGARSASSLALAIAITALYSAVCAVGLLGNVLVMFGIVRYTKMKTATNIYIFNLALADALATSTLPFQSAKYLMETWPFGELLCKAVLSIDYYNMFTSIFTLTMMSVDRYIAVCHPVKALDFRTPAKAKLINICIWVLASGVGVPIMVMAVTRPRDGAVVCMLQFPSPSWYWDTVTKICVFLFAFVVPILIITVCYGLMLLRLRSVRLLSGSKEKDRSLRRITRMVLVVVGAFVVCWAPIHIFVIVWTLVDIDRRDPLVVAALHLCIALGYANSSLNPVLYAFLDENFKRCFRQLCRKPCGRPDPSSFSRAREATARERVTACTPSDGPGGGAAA

[15] = molecular target: T4, Kappa-type opioid receptor; assay: KOR antagonists by imaging, SAR follow-up, image-based (AID 2348); assay type: functional
[16] = molecular target: T5, Delta-type opioid receptor; assay: DOR agonists, SAR follow-up, image-based (AID 2370); assay type: functional
Mu-type opioid receptor [17] = molecular target: T3, Mu-type opioid receptor; assay: MOR agonists by imaging, SAR follow-up, image-based (AID 2352); assay type: functional
[18] = molecular target: T4, Kappa-type opioid receptor; assay: kappa opioid receptor blockers, cell-based, luminescence, beta-arrestin, SAR follow-up (AID 2285); assay type: functional
[19] = molecular target: Intestinal-type alkaline phosphatase (Homo sapiens, UniProt P09923); assay: Dose Response confirmation of uHTS hits from a small molecule inhibitors of human intestinal alkaline phosphatase via a luminescent assay. [Related pubchem assays (depositor defined):AID2544, AID2574]; assay type: functional
Chain of Intestinal-type alkaline phosphatase (P09923 whole entry): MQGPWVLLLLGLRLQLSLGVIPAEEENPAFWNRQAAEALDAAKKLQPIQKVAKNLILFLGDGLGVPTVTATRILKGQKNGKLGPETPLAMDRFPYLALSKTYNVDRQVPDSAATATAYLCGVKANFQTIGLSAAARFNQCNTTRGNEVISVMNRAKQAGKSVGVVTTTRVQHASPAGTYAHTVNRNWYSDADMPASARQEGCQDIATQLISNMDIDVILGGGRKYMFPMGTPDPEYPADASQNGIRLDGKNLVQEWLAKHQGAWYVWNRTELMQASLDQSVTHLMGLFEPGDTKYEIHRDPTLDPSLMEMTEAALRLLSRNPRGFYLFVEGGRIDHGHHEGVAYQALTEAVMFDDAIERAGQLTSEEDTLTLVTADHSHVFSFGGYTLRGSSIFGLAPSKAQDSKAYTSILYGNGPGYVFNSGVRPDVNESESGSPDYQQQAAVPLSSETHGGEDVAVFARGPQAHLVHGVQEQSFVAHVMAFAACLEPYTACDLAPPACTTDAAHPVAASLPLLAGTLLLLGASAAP

[20] = molecular target: T6, Corticotropin-releasing factor receptor 2/Corticotropin-releasing factor-binding protein (Homo sapiens, UniProt P24387+Q13324); assay: Dose Response confirmation of uHTS hits for small molecule antagonists of the CRF-binding protein and CRF-R2 receptor complex.; assay type: functional; settings: read-out: IC50_Mean
T6 sequence (Q13324 whole entry): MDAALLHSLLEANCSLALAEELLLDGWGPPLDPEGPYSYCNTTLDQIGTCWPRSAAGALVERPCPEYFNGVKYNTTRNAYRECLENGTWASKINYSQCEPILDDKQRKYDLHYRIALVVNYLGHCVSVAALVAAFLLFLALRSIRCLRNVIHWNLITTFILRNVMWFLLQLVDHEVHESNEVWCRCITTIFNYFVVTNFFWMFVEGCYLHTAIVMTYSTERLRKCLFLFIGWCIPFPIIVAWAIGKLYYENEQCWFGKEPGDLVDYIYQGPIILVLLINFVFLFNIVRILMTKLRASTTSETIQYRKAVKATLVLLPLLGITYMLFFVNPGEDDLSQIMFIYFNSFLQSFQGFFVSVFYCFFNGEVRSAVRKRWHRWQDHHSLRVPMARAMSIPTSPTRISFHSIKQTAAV
T6 sequence (P24387 whole entry): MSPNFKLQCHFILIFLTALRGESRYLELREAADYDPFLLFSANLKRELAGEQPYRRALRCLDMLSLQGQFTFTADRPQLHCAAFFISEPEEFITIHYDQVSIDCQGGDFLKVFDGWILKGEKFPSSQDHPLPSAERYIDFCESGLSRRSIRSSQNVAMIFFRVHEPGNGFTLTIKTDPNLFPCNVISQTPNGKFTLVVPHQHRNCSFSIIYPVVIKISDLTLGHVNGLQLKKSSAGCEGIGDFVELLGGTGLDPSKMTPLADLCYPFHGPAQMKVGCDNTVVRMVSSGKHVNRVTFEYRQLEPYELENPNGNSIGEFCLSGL

[21] = molecular target: T7, Voltage-dependent T-type calcium channel subunit alpha-1H (Homo sapiens, UniProt O95180); assay type: functional;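 note: channel activity triggered by adding a high calcium stimulation buffer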
[22] = molecular target: T6, Corticotropin-releasing factor receptor 2/Corticotropin-releasing factor-binding protein; assay: activators of CRF receptor 2 with binding protein – uHTS hits, confirmation (AID 602473); assay type: functional; settings: read-out: EC50_Mean
[23] = molecular target: T8, Nucleotide-binding oligomerization domain-containing protein 2 (Homo sapiens, UniProt Q9HC29); assay: NOD2 signaling inhibitors, cell-based, luminescence, uHTS, HEK293 (AID 1566); assay type: functional
[24] = molecular target: T8, Nucleotide-binding oligomerization domain-containing protein 2; assay: PubChem AID 2334; assay type: functional
[25] = molecular target: T9, Nucleotide-binding oligomerization domain-containing protein 1 (Homo sapiens, UniProt Q9Y239); assay: NOD1 signaling inhibitors, SAR follow-up, revised (AID 2333); assay type: functional
T9 sequence (Q9Y239 whole entry): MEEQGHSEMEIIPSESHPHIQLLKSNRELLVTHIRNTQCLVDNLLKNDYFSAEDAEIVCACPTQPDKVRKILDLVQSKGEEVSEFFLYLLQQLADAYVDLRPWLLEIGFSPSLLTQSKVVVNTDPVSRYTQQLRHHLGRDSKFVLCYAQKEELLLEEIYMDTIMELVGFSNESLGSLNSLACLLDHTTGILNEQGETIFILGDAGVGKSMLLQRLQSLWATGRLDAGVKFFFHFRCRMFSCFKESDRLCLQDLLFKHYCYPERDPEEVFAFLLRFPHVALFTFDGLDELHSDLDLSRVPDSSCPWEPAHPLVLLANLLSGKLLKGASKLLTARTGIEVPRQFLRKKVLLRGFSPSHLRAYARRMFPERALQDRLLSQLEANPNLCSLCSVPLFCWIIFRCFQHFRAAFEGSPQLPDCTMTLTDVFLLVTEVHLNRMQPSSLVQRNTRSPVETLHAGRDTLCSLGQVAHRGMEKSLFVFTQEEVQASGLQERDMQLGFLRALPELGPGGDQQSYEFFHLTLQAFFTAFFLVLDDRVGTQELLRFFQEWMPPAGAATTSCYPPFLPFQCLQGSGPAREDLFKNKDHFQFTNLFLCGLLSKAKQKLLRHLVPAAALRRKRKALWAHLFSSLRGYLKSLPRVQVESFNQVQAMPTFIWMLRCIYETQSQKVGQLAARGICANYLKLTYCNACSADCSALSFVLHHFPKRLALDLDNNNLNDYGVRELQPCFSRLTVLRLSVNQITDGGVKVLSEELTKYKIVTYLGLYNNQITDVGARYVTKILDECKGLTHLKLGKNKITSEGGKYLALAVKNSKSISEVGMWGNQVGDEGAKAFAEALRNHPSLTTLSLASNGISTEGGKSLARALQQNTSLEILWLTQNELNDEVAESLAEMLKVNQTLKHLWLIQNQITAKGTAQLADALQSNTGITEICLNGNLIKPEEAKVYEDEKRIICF

Tumor necrosis factor = Tumor necrosis factor (Homo sapiens, UniProt P01375); assay: TNFa-triggered NF-kB activation inhibitors, SAR follow-up, cell-based, revised (AID 2337); assay type: functional
[26] = molecular target: G-protein coupled receptor 55 (Homo sapiens, UniProt Q9Y2T6); assay: GPR55 antagonists blocking LPI-driven arrestin recruitment, primary screen, imaging, U2OS, beta-arrestin-GFP, LPI agonist (AID 2013); assay type: functional;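 note: antagonist potency measured as reduced agonist-driven arrestin aggregation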
[27] = molecular target: T7, Voltage-dependent T-type calcium channel subunit alpha-1H; assay: Cav3.2 T-type channel inhibitors, cell-based, synthetic library set 1, calcium flux (AID 493022); assay type: functional

T1 sequence (Q00975 whole entry): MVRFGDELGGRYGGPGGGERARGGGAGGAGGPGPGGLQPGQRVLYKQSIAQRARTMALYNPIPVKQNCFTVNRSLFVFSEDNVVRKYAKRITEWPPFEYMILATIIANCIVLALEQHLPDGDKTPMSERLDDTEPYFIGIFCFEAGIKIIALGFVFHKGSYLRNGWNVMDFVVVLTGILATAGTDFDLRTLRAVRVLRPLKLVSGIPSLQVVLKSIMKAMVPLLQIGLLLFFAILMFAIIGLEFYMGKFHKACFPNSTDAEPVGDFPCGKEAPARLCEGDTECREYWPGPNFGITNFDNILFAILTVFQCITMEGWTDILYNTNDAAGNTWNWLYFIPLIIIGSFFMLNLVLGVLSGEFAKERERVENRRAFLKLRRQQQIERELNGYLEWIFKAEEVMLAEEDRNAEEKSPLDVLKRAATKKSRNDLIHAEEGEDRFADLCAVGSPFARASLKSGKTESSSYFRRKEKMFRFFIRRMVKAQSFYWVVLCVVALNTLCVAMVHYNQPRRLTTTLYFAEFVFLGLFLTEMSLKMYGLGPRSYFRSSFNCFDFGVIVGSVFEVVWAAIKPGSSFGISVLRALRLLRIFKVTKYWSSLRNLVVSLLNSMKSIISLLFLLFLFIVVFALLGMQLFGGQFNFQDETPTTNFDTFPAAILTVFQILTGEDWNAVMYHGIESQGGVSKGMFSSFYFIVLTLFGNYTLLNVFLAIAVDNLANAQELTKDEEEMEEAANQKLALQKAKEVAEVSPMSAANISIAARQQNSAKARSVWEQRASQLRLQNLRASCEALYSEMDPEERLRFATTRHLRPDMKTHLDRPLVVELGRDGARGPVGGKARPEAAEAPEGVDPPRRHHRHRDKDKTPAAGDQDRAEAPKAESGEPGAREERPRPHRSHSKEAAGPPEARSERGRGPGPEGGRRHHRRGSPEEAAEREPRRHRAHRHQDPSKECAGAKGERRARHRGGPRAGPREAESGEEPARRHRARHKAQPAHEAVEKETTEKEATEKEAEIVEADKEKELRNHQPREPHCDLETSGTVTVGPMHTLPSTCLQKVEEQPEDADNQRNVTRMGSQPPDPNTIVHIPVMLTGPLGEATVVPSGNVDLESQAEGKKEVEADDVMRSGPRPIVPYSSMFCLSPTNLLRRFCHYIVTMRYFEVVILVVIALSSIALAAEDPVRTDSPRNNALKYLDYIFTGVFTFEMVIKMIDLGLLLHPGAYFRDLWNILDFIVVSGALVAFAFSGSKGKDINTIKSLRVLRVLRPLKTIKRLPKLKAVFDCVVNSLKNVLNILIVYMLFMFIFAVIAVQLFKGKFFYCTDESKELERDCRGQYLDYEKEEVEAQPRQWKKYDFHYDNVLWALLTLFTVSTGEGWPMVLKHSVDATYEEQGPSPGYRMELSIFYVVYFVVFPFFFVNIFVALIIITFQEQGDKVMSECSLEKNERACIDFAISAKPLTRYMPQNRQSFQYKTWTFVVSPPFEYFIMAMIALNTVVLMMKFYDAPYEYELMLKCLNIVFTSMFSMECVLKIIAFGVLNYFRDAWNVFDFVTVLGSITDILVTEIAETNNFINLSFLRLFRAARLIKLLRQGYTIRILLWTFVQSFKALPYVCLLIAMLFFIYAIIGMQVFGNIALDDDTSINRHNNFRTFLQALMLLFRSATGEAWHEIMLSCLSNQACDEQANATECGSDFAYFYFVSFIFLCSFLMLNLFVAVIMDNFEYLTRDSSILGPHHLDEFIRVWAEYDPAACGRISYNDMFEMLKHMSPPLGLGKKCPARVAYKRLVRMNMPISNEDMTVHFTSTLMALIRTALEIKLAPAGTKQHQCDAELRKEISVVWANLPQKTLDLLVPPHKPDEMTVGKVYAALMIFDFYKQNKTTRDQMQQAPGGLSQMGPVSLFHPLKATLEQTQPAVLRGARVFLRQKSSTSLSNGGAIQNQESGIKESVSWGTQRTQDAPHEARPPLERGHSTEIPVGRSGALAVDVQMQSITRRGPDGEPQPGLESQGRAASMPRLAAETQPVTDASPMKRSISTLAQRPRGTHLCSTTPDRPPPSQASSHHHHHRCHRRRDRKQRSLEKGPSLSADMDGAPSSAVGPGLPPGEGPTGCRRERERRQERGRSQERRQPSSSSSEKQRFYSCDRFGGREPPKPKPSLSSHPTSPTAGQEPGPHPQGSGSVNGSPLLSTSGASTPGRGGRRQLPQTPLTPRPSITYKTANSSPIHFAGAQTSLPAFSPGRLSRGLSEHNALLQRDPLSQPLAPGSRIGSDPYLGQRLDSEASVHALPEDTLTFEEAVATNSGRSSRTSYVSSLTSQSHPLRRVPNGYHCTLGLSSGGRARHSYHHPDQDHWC
T1 sequence (Q02410 whole entry): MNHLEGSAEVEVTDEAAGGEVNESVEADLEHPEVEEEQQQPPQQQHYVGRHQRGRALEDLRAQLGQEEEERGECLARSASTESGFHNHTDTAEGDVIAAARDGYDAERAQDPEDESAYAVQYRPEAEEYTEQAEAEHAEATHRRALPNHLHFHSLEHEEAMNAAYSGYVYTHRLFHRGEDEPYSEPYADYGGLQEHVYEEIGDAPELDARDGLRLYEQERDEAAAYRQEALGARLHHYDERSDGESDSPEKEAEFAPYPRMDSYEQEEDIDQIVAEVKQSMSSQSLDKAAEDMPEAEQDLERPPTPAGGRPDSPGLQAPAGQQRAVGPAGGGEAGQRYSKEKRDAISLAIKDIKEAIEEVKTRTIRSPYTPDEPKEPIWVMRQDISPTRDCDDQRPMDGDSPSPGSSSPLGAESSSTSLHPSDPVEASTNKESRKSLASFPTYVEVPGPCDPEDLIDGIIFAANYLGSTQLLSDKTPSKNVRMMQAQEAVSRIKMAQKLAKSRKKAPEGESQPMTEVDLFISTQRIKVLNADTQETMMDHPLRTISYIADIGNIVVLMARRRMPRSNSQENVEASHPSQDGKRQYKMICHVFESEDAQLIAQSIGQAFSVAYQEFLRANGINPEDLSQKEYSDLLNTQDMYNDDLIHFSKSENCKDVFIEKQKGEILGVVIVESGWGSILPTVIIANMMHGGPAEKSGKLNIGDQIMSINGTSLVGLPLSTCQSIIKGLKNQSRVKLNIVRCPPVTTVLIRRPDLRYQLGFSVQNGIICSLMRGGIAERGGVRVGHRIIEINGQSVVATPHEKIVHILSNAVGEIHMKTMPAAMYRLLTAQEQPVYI

In the case of `CC12C=CC(C)(O1)C1C(=O)N(c3ccccc3)C(=O)C12` (stereo not given), the IC50 [1] is reported as 11.7 µM (active) and the IC50 [2] is reported as 10.5 µM (active).

In the case of `CCN(CC)S(=O)(=O)c1ccc(N2CCCC2)c(NS(=O)(=O)c2ccc(F)cc2)c1`, the IC50 (Protein Rev) is reported as > 75.4 µM (not active) and the IC50 [3] is reported as 4.04 µM (active).

In the case of `CCOc1ccc(NC(=O)C2CCC(C)(C(=O)O)C2(C)C)cc1` (stereo not given), the IC50 [4] is reported as > 300 µM (active).

In the case of `Cc1ccc(-n2cc(CNCCc3cscn3)c(-c3ccc(F)cc3)n2)cc1`, the CC50 [5] is reported as 16.5 µM (active), the CC50 [6] is reported as 23.1 µM (active) and the IC50 (cells) is reported as 12.7 µM (active).

With `CC(C)n1cnc2c(Nc3cccc(Cl)c3)nc(N(CCO)CCCO)nc21` the EC50 [7] was 10.7 µM (active), the EC50 [8] was 9.32 µM (active) and the IC50 [9] was > 20 µM (inactive). For the same compound, the EC50 [10] was 10.8 µM (active) and the AC50 [11] was 0.463 µM (active).

In the case of `Cc1ccc(-n2[nH]c(C)c(C=Nc3ccc(Cl)c4cccnc34)c2=O)cc1`, the IC50 (Mu-type opioid receptor [12]) is reported as > 32 µM (inactive), the EC50 [13] is reported as 3.85 µM (active) and the IC50 [14] is reported as > 32 µM (inactive). The IC50 [15] was > 32 µM (inactive), the EC50 [16] was 14.8 µM (inactive) and the EC50 (Mu-type opioid receptor [17]) was 2.73 µM (active). For the same compound, the IC50 [18] was > 10 µM (inactive).

In the case of `c1ccc(-c2nnc(CN3CCC4(CC3)OCCO4)o2)cc1`, the IC50 [19] is reported as > 100 µM (inactive).

In the case of `COc1ccc(C(c2nnnn2Cc2ccccc2)N2CCN(c3ccccc3)CC2)cc1` (stereo not given), the IC50 [20] is reported as > 47.1 µM (inactive), the EC50 [21] is reported as 3.34 µM (active) and the EC50 [22] is reported as > 53 µM (inactive).

For `Cc1nn(-c2ccccc2)c2nc(C(Cl)(Cl)Cl)[nH]c(=O)c12`, the EC50 [23] was 10.5 µM (active), the IC50 [24] was 5.9 µM (active) and the IC50 [25] was 4.5 µM (active). The IC50 (Tumor necrosis factor) was 6.62 µM (active).

For `Nc1nc(C23CC4CCC(CC(C4)C2)C3)cs1`, the IC50 [26] was 7.48 µM (active).

For `O=C(COc1ccc(F)cc1)Nc1nnc(-c2ccc3c(c2)CCCC3)o1`, the EC50 [27] was 2.1 µM (active).
